Measurements taken from publication PMC10178848, “Modulating fast skeletal muscle contraction protects skeletal muscle in animal models of Duchenne muscular dystrophy” (The Journal of Clinical Investigation, 2023).

Tested on: psoas S1 (fast skeletal muscle myosin)
Test: Stopped-flow analysis of Pi release from myosin
Assay type: biochemical, rabbit
Set-up: dose or concentration left out as unconfirmed
Details: preincubation with myosin 30 minutes prior to actin
Protocol: The rate of Pi release from myosin with actin utilized a fluorescent phosphate binding protein, as described previously ([63]). Experiments were performed in 10 mM MOPS, pH 7.0; 5 mM KCL; 1 mM EGTA; 1 mM DTT; 0.5 mM MgCl2. ATP and ADP were removed by incubation with apyrase ([64]). Prior to mixing with 1 mM ATP in a stopped flow device, compound was incubated with 6 μM psoas S1 at 25°C for 30 minutes.

Cc1ccc(S(=O)(=O)NCc2ccccc2)cc1 [BTS, N-benzyl-p-toluene sulfonamide, reference compound]
rate of Pi release from myosin with actin: decreased the rate of Pi release
